The values below come from US5817840A, “Water soluble taxol derivatives” (The Scripps Research Institute, priority 1997, dated 1998).

In brackets after ≈: the same amount, converted by molar mass. Read-outs that look alike come from different tables or passages of the source. Bounds are passed on as bounds.

The nature of data set [1]: Taxol release from protaxols in aqueous buffer. It is filed as physicochemical. The conditions noted are these: aqueous buffer. How it is done: The derivatives in which the C-7 hydroxyl group was acetylated were extremely unstable in aqueous media losing the C-7 substituent very rapidly. The stability of the synthesized compounds was examined at various pH's and temperatures. […] Table 1A includes the half-lives of six of these compounds at pH 7.5 and 9. […] This illustrates the ability to fine-tune the rate of release of taxol to a desired set of conditions using simple chemical principles.
Protaxol 5 was dissolved in dimethylsulphoxide (DMSO) at 25° C. and immediately added to the appropriate phosphate buffer solution at the specified temperature. Aliquots were analysed using a Waters Maxima system HPLC instrument equipped with auto-injector (3.9×300 mm C18 column equipped with a precolumn; flow rate, 1.5 ml min^-1; eluant, gradient A-B, where A is 80% 100 mM ammonium acetate, buffer pH 6.0, and B is 100% methanol; ultraviolet detector). The per cent taxol released was determined from the relative areas of the peaks corresponding to protaxol 5 and taxol (the conversion was clean, and it was assumed that the two compounds have equal molar extinction coefficients).

The next data set concerns L1210 (mouse leukaemia). The experiment in a line: Cytotoxicity (sulphorhodamine B), cancer cell line, Table 1B. It is filed as cell-based.
The next data set concerns MCF-7 (breast carcinoma). Described as above. The format is cell-based. To be noted: Homo sapiens.
The test system of another data set is SK (melanoma). The description is as above. It is filed as cell-based.
For data set [2], the system named is 786-0 (renal cell carcinoma). The description is as above. The format is cell-based. The conditions noted are these: Homo sapiens.
Procedure: (§1) The cytotoxicities were determined using the sulphorhodamine B assay method (Skehan, P. et al. J. Nat. Canc. Inst. 82, 1107 (1990)).
The subject of another data set is SIHA (cervix carcinoma). The data set is described as above. The conditions noted are these: Homo sapiens. It is filed as cell-based.
Data set [3] relates to BALB/c 3T3 (normal mouse embryo). The experiment in a line: Cytotoxicity (sulphorhodamine B), normal cell line, Table 1B. The format is cell-based.
Procedure: as §1
For data set [4], the system named is CHO (Chinese hamster ovary). The data set is described as above. The format is cell-based. To be noted: Cricetulus griseus.
Procedure: as §1
Data set [5] deals with PC-3 (prostate carcinoma). The experiment in a line: Cytotoxicity (sulphorhodamine B), cancer cell line, Table 1B. The format is cell-based. To be noted: Homo sapiens.
Procedure: as §1
The next data set concerns NHDF (normal human skin). The experiment in a line: Cytotoxicity (sulphorhodamine B), normal cell line, Table 1B. The format is cell-based.
The test system of data set [6] is HL-60 (promyel carcinoma). The experiment in a line: Cytotoxicity (sulphorhodamine B), cancer cell line, Table 1B. The format is cell-based. To be noted: Homo sapiens.
Procedure: as §1
The test system of data set [7] is MOLT-4 (T-cell leukaemia). The description is as above. It is filed as cell-based. The conditions noted are these: Homo sapiens.
Procedure: as §1
Another data set has as its system H322 (lung carcinoma). Described as above. The format is cell-based.
The test system of a further data set is HT-29 (colon carcinoma). The description is as above. It is filed as cell-based. To be noted: Homo sapiens.
Data set [8] concerns OVCAR-3 (ovarian carcinoma). The description is as above. It is filed as cell-based. To be noted: Homo sapiens, OVCAR-3, 72 h.
Procedure: as §1
In a further data set the test system is Capan-1 (pancreatic). Described as above. It is filed as cell-based. The conditions noted are these: Homo sapiens.
The test system of data set [9] is BT-549 (breast carcinoma). Described as above. It is filed as cell-based. To be noted: Homo sapiens.
Procedure: as §1
In data set [10] the test system is RPMI-7666 (normal human PBLs). The experiment in a line: Cytotoxicity (sulphorhodamine B), normal cell line, Table 1B. The format is cell-based.
Procedure: as §1
Data set [11] relates to UCLA-P-3 (lung carcinoma). The experiment in a line: Cytotoxicity (sulphorhodamine B), cancer cell line, Table 1B. It is filed as cell-based. To be noted: Homo sapiens.
Procedure: as §1
The test system of data set [12] is CHO (normal human mammary). The experiment in a line: Cytotoxicity (sulphorhodamine B), normal cell line, Table 1B. It is filed as cell-based.
Data set [13] in a line: Water solubility in D2O by 1H NMR. To be noted: d2o. How it is done: The solubilities of the synthesized protaxols in D2 O were determined by 1H NMR spectroscopy.
The resulting mixture was centrifuged for 20 minutes and the supernatant saturated solution was analysed by ^1 H NMR spectroscopy using a Bruker AMX-400 instrument and methanol or pyridine as internal standard. The concentration of the compound was determined by comparing several signals with the CH3 signal of methanol or the NCH signal of pyridine.

Setting [14] is: pH 7.5, 37° C., read-out: t1/2 (pH 7.5), 50% taxol release.
The mark [15] stands for this setting: pH 9, 37° C., read-out: t1/2 (pH 9), 50% taxol release.

Procedure for Capan-1 (pancreatic): as §1
Procedure for H322 (lung carcinoma): as §1
Procedure for HT-29 (colon carcinoma): as §1
Procedure for L1210 (mouse leukaemia): as §1
Procedure for MCF-7 (breast carcinoma): as §1
Procedure for NHDF (normal human skin): as §1
Procedure for SIHA (cervix carcinoma): as §1
Procedure for SK (melanoma): as §1

Consider `CC(=O)O[C@H]1C(=O)[C@@]2(C)[C@H]([C@H](OC(=O)c3ccccc3)[C@]3(O)C[C@H](OC(=O)[C@H](OC(=O)OCCS(=O)(=O)c4ccccc4)[C@@H](NC(=O)c4ccccc4)c4ccccc4)C(C)=C1C3(C)C)[C@]1(OC(C)=O)CO[C@@H]1C[C@@H]2O`, for which the half-life is greater than 500 min in data set [1] (setting [14]) and 66 min in data set [1] (setting [15]).
As usually defined, the IC50 is the concentration that inhibits the measured activity by half. Take `CC(=O)O[C@H]1C(=O)[C@@]2(C)[C@H]([C@H](OC(=O)c3ccccc3)[C@]3(O)C[C@H](OC(=O)[C@H](OC(=O)OCCSc4ccccc4)[C@@H](NC(=O)c4ccccc4)c4ccccc4)C(C)=C1C3(C)C)[C@]1(OC(C)=O)CO[C@@H]1C[C@@H]2O` [Compound 7]: the IC50 in the data set with L1210 (mouse leukaemia) (L1210, 72 h) was found to be 10000 nM; with MCF-7 (breast carcinoma) (MCF7, 72 h), 10 µM; in the data set with SK (melanoma) (72 h) it was 10 µM; in data set [2] (786-0, 72 h), 10000 nM; in the data set with SIHA (cervix carcinoma) (SiHa, 72 h), 10 µM; in data set [3] (BALB/c3T3, 72 h) it was 10 µM. Also, the IC50 in data set [4] (72 h) was 100 µM; in data set [5] (72 h) it was 1000 nM; in the data set on NHDF (normal human skin) (72 h), 1000 nM; in data set [6] (HL-60, 72 h), less than 1 nM; in data set [7] (MOLT-4, 72 h), less than 1 nM; with H322 (lung carcinoma) (NCI-H322, 72 h), 1 nM. Besides, the IC50 is less than 1 nM in the data set with HT-29 (colon carcinoma) (HT-29, 72 h); less than 1 nM in data set [8]; less than 1 nM in the data set on Capan-1 (pancreatic) (CAPAN-1, 72 h); less than 1 nM in data set [9] (BT-549, 72 h); 100 µM in data set [10] (72 h); less than 1 nM in data set [11] (UCLA P-3, 72 h). Further, it took 100 µM to reach half-maximal inhibition in data set [12] (Homo sapiens, 72 h) (IC50).
For `CC(=O)O[C@H]1C(=O)[C@]2(C)[C@@H](OC(=O)COCC(=O)O)C[C@H]3OC[C@@]3(OC(C)=O)[C@H]2[C@H](OC(=O)c2ccccc2)[C@]2(O)C[C@H](OC(=O)[C@H](OC(=O)COCC(=O)O)[C@@H](NC(=O)c3ccccc3)c3ccccc3)C(C)=C1C2(C)C` [Compound 11], the IC50 in the data set with L1210 (mouse leukaemia) (L1210, 72 hours, read-out: IC50) was found to be 1000 nM; in the data set on MCF-7 (breast carcinoma) (MCF7, CF-7 / MCF-7, 72 hours, read-out: IC50), 10 µM; in the data set with SK (melanoma) (SK melanoma, 72 hours, read-out: IC50), 10 µM; in [2] (786-0, 72 hours, read-out: IC50), 1000 nM; in the data set with SIHA (cervix carcinoma) (SIHA, 72 hours, read-out: IC50), 10 µM; in data set [3] (BALB/c3T3, BALB/c 3T3, 72 hours, read-out: IC50), 1 µM. For the same molecule, the IC50 in data set [4] (CHO, Chinese hamster ovary, 72 hours, read-out: IC50) was 100 µM; in [5] (PC-3, 72 hours, read-out: IC50), 1000 nM; in the data set with NHDF (normal human skin) (72 hours, read-out: IC50), 1000 nM; in [6] (HL-60, 72 hours, read-out: IC50), less than 1 nM; in [7] (MOLT-4, 72 hours, read-out: IC50) it was less than 1 nM; in the data set with H322 (lung carcinoma) (NCI-H322, H322, 72 hours, read-out: IC50), 1 nM. The 50% inhibitory concentration (IC50) in the data set on HT-29 (colon carcinoma) (HT-29, 72 hours, read-out: IC50) was less than 1 nM; in the data set on Capan-1 (pancreatic) (Capan-1, 72 hours, read-out: IC50), less than 1 nM; in data set [9] (BT-549, 72 hours, read-out: IC50) it was less than 1 nM; in data set [10] (RPMI-7666, 72 hours, read-out: IC50) it was 100 µM; in data set [11] (UCLA-P-3, 72 hours, read-out: IC50), 1 nM; in [12] (CHO, normal human mammary, 72 hours, read-out: IC50) it was 100 µM.
With `CC(=O)O[C@H]1C(=O)[C@]2(C)[C@@H](OC(=O)CSCC(=O)O)C[C@H]3OC[C@@]3(OC(C)=O)[C@H]2[C@H](OC(=O)c2ccccc2)[C@]2(O)C[C@H](OC(=O)[C@H](OC(=O)CSCC(=O)O)[C@@H](NC(=O)c3ccccc3)c3ccccc3)C(C)=C1C2(C)C` [Compound 12], the 50% inhibitory concentration (IC50) in the data set on L1210 (mouse leukaemia) (L1210, 72 h) came to 1000 nM; in the data set with MCF-7 (breast carcinoma) (MCF7, 72 h), 10 µM; with SK (melanoma) (72 h), 10 µM; in [2] (786-0, 72 h) it was 1000 nM; with SIHA (cervix carcinoma) (SiHa, 72 h) it was 10 µM; in [3] (BALB/c3T3, 72 h) it was 10 µM. The concentration for half-maximal inhibition (IC50) in data set [4] (72 h) was 100 µM; in data set [5] (72 h), 1000 nM; in the data set on NHDF (normal human skin) (72 h) it was 1000 nM; in data set [6] (HL-60, 72 h), less than 1 nM; in [7] (MOLT-4, 72 h) it was less than 1 nM; with H322 (lung carcinoma) (NCI-H322, 72 h), 100 nM. The concentration for half-maximal inhibition (IC50) with HT-29 (colon carcinoma) (HT-29, 72 h) was 100 nM; with Capan-1 (pancreatic) (CAPAN-1, 72 h), less than 1 nM; in data set [9] (BT-549, 72 h) it was less than 1 nM; in [10] (72 h), 100 µM; in [11] (UCLA P-3, 72 h), 1 nM; in data set [12] (Homo sapiens, 72 h), 100 µM.
Broadly, the solubility is how much of the substance goes into solution per volume. Low values mean little dissolved substance, high ones much dissolved substance. In data set [13], `CC(=O)O[C@H]1C(=O)[C@@]2(C)[C@H]([C@H](OC(=O)c3ccccc3)[C@]3(O)C[C@H](OC(=O)[C@H](OC(=O)COCC(=O)O)[C@@H](NC(=O)c4ccccc4)c4ccccc4)C(C)=C1C3(C)C)[C@]1(OC(C)=O)CO[C@@H]1C[C@@H]2O` [drawing 5] had a solubility of 840 µg/mL (≈ 866 µM). Further, the half-life is greater than 500 min in [1] (setting [14]) and 110 min in [1] (setting [15]).
On the same counts, the results for `CC(=O)O[C@H]1C(=O)[C@@]2(C)[C@H]([C@H](OC(=O)c3ccccc3)[C@]3(O)C[C@H](OC(=O)[C@H](OC(=O)CSCC(=O)O)[C@@H](NC(=O)c4ccccc4)c4ccccc4)C(C)=C1C3(C)C)[C@]1(OC(C)=O)CO[C@@H]1C[C@@H]2O` [drawing 6] are 350 µg/mL (≈ 355 µM), greater than 500 min and 300 min.
For `CC(=O)O[C@H]1C(=O)[C@@]2(C)[C@H]([C@H](OC(=O)c3ccccc3)[C@]3(O)C[C@H](OC(=O)[C@H](OC(=O)CS(=O)(=O)CC(=O)O)[C@@H](NC(=O)c4ccccc4)c4ccccc4)C(C)=C1C3(C)C)[C@]1(OC(C)=O)CO[C@@H]1C[C@@H]2O` [drawing 7] the same measures were 1200 µg/mL (≈ 1180 µM), greater than 500 min and 30 min.
Consider `CC(=O)O[C@H]1C(=O)[C@@]2(C)[C@H]([C@H](OC(=O)c3ccccc3)[C@]3(O)C[C@H](OC(=O)[C@H](OC(=O)OCCS(=O)(=O)c4ccc([N+](=O)[O-])cc4)[C@@H](NC(=O)c4ccccc4)c4ccccc4)C(C)=C1C3(C)C)[C@]1(OC(C)=O)CO[C@@H]1C[C@@H]2O` [drawing 11], for which the half-life is greater than 500 min in data set [1] (setting [14]) and 7 min in data set [1] (setting [15]).
For `CC(=O)O[C@H]1C(=O)[C@@]2(C)[C@H]([C@H](OC(=O)c3ccccc3)[C@]3(O)C[C@H](OC(=O)[C@H](OC(=O)OCCS(=O)(=O)c4ccc(N)cc4)[C@@H](NC(=O)c4ccccc4)c4ccccc4)C(C)=C1C3(C)C)[C@]1(OC(C)=O)CO[C@@H]1C[C@@H]2O` [drawing 12] the same measures were greater than 500 min and 101 min.
On to `CC(=O)O[C@H]1C(=O)[C@]2(C)[C@@H](OC(=O)COCC(=O)O)C[C@H]3OC[C@@]3(OC(C)=O)[C@H]2[C@H](OC(=O)c2ccccc2)[C@]2(O)C[C@H](OC(=O)[C@H](OC(=O)COCC(=O)O)[C@@H](NC(=O)c3ccccc3)c3ccccc3)C(C)=C1C2(C)C` [drawing 13], for which the solubility in data set [13] worked out at 500 µg/mL (≈ 460 µM).
On the same count and under the same terms, the value for `CC(=O)O[C@H]1C(=O)[C@]2(C)[C@@H](OC(=O)CSCC(=O)O)C[C@H]3OC[C@@]3(OC(C)=O)[C@H]2[C@H](OC(=O)c2ccccc2)[C@]2(O)C[C@H](OC(=O)[C@H](OC(=O)CSCC(=O)O)[C@@H](NC(=O)c3ccccc3)c3ccccc3)C(C)=C1C2(C)C` [drawing 14] was 460 µg/mL (≈ 411 µM).
